# How the values were obtained:
# Type in all cases: physicochemical
# [1] = Solubility (wt %) of the dye in liquid crystal material; settings: for Solubility: liquid crystal material E 43, 20° C.
# Protocol: (§1) (i) Order parameters, solubilities and stabilities reported in Tables I to V were measured in the liquid crystal material, E 43, which is referred to as Host B in UK Specification No. 2081736A and is available from BDH Ltd of Poole, Dorset. Measurements were made at 20° C. unless otherwise indicated.
# (§2) (iii) The liquid crystal materials in Table V are:
# (§3) ZLI 1695: Available from E. Merck Co, Darmstadt, W. Germany;
# (§4) FBCO Ester: Host 12 of UK application No. 8205153.
# (§5) (iv) In Table V "S" means order parameter and "Sol" means solubility (wt %) in the appropriate liquid crystal material.
# [2] = Order parameter (S) of the dye in liquid crystal material; settings: for Order Parameter (S): liquid crystal material E 43, 20° C.
# Protocol: as §1, §2, §3, §4, §5
# [3] = Stability to irradiation with 1 kW phosphor-coated mercury vapour lamp; settings: E 43, 1 kW mercury vapour lamp, 30° C.
# Protocol: as §1
# (ii) Stabilities were measured as the percentage decrease in absorption at the absorption maximum after the indicated period of irradiation with a 1 kW phosphor-coated, mercury vapour lamp at 30° C.
# [4] = Extinction coefficient
# [5] = liquid crystal material FBCO Ester, 20° C.
# [6] = liquid crystal material ZLI 1132, 20° C.
# [7] = liquid crystal material ZLI 1695, 20° C.
Solubility [1] [wt %],Order Parameter (S) [2],SMILES,also measured
1.6,0.71,"CC(CCCc1cc(N)c2c(c1O)C(=O)c1c(O)c(CCCC(C)CC(C)(C)C)cc(N)c1C2=O)CC(C)(C)C (centres unmarked) [--C2 H4 CH(CH3)CH2 C(CH3)3, reference compound]",–
–,0.66,CCC(CC)Cc1cc(N)c2c(c1O)C(=O)c1c(O)c(CC(CC)CC)cc(N)c1C2=O [--CH(C2 H5)2],–
–,0.68,CCC(C)Cc1cc(N)c2c(c1O)C(=O)c1c(O)c(CC(C)CC)cc(N)c1C2=O (centres unmarked) [--CH(CH3)CH2 CH3],–
8.0,0.77,"CCCCCc1cc(N)c2c(c1O)C(=O)c1c(O)c(CCCCC)cc(N)c1C2=O [Example 1c, 2,7-Di-n-pentyl-4,5-diamino-chrysazin]","Sol (solubility) [1, 5]: 3 wt %; Sol (solubility) [1, 6]: 10.0 wt %; Sol (solubility) [1, 7]: 6.5 wt %; S (order parameter) [2, 5]: 0.69; S (order parameter) [2, 6]: 0.77; S (order parameter) [2, 7]: 0.79; Stability (percentage decrease in absorption at the absorption maximum) ([3]; 100 hr irradiation): 97%; Stability (percentage decrease in absorption at the absorption maximum) ([3]; 2000 hr irradiation): 73%"
5.5,0.78,"CCCCCCCc1cc(N)c2c(c1O)C(=O)c1c(O)c(CCCCCCC)cc(N)c1C2=O [Example 2c, 2,7-Di-n-heptyl-4,5-diaminochrysazin]","Sol (solubility) [1, 5]: 3 wt %; Sol (solubility) [1, 6]: 7.0 wt %; S (order parameter) [2, 5]: 0.70; S (order parameter) [2, 6]: 0.78; S (order parameter) [2, 7]: 0.80; Stability (percentage decrease in absorption at the absorption maximum) ([3]; 400 hr irradiation): 92%; Stability (percentage decrease in absorption at the absorption maximum) ([3]; 2000 hr irradiation): 87%"
4.3,0.76,"CCCCCCc1cc(N)c2c(c1O)C(=O)c1c(O)c(CCCCCC)cc(N)c1C2=O [Example 3, 2,7-Di-n-hexyl-4,5-diaminochrysazin]",–
13.0,0.73,"CCCCCCCCc1cc(N)c2c(c1O)C(=O)c1c(O)c(CCCCCCCC)cc(N)c1C2=O [Example 4, 2,7-di-n-octyl-4,5-diaminochrysazin]",–
0.5,0.68,"CCCCCCCc1cc(N)c2c(c1O)C(=O)c1c(O)c(CCCCCCC)cc(NC)c1C2=O [Example 5b, 2,7-di-n-heptyl-4-amino-5-methylaminochrysazin]","extinction coefficient ([4]; at 675 nm): 19,522"
0.5,0.67,"CCCCCCCc1cc(NC)c2c(c1O)C(=O)c1c(O)c(CCCCCCC)cc(NC)c1C2=O [Example 5c, 2,7-di-n-heptyl-4,5-di(methylamino)chrysazin]","extinction coefficient ([4]; at 575 nm): 22,100"
3.3,0.72,CCCCCc1cc(N)c2c(c1O)C(=O)c1c(O)c(CCCCC)cc(NC)c1C2=O [Example 6b],"extinction coefficient ([4]; at 675 nm): 23,785"
0.9,0.66,CCCCCc1cc(NC)c2c(c1O)C(=O)c1c(O)c(CCCCC)cc(NC)c1C2=O [Example 6c],–
–,0.54,"CNc1cc(CC(C)C)c(O)c2c1C(=O)c1c(NC)cc(CC(C)C)c(O)c1C2=O [iso-propyl, Comparative Dye, TABLE III]",–
–,0.63,"CNc1cc(CC(C)C)c(O)c2c1C(=O)c1c(N)cc(CC(C)C)c(O)c1C2=O [iso-propyl, Comparative Dye, TABLE II]",–
< 0.01,–,"CCCCCCCc1cc(N)c2c(c1O)C(=O)c1c(N)cc(CCCCCCC)c(O)c1C2=O [n-hexyl, Comparative Dyes (Formula B), reference compound]",–

# Source: patent US4493785A, “Anthraquinone compounds” (Imperial Chemical Industries PLC, priority 1982, dated 1985)
